Measured values published in patent US8937068B2, “Pyridopyrazine derivatives and their use” (Zentaris GmbH, priority 2005, dated 2015).

Columns and labels:
[1] = molecular target: Erk2 (Homo sapiens, UniProt P28482); assay: Cell-free kinase assay (ALPHA technology), Erk2; assay type: biochemical; conditions: 10 μM ATP
Outline: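 Recombinant tagged Erk2 kinase reactions were stopped with ALPHA bead mix […]. The signal was read after standing overnight. Controls were run in eight replicates and compounds in duplicate, and IC50 was fitted.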

[2] = molecular target: p38alpha (Homo sapiens (Human), UniProt Q16539); assay: Cell-free kinase assay (ALPHA technology), p38alpha; assay type: biochemical; conditions: 10 μM ATP
Sequence of p38alpha (Q16539 whole entry): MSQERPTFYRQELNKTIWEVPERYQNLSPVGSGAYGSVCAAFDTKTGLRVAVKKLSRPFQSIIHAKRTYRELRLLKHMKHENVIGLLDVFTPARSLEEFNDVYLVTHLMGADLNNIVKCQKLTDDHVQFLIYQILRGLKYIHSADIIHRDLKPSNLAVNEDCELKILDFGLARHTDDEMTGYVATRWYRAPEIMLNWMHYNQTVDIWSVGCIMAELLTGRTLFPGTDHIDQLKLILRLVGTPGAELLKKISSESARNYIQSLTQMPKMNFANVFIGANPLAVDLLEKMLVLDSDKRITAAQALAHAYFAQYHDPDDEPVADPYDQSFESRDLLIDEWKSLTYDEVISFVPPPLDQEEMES

[3] = molecular target: PI3Kalpha (Homo sapiens (Human), UniProt P42336); assay: Cell-free kinase assay (ALPHA technology), PI3Kalpha; assay type: biochemical; conditions: 100 μM ATP
Sequence of PI3Kalpha (P42336 whole entry): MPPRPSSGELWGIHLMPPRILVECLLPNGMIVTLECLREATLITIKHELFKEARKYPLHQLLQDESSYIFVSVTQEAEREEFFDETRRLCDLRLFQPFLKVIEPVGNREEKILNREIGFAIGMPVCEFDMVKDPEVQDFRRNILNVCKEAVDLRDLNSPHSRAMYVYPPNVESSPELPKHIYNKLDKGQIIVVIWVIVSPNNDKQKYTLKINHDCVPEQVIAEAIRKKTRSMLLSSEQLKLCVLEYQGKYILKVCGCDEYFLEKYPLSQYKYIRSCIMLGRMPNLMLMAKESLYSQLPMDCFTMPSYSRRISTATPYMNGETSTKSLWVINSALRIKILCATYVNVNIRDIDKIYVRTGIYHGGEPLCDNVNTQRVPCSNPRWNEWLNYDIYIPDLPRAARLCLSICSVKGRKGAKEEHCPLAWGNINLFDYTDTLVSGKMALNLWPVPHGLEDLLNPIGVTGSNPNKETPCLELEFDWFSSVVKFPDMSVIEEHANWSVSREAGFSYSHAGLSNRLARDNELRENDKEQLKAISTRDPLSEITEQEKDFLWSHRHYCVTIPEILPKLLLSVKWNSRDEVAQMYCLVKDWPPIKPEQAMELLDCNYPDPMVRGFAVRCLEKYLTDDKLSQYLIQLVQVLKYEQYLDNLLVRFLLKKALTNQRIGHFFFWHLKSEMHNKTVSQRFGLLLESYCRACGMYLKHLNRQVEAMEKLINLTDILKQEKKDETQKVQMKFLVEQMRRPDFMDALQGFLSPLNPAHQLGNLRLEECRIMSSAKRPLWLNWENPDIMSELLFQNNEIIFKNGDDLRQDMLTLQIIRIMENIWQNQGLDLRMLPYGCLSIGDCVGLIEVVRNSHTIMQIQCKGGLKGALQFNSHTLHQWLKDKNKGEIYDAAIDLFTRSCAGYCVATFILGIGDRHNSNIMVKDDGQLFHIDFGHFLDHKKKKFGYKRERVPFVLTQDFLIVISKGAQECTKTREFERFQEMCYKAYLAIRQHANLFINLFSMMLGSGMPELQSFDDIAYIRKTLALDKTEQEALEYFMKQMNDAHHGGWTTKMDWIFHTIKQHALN
Sequence of PI3Kalpha (P27986 whole entry partner): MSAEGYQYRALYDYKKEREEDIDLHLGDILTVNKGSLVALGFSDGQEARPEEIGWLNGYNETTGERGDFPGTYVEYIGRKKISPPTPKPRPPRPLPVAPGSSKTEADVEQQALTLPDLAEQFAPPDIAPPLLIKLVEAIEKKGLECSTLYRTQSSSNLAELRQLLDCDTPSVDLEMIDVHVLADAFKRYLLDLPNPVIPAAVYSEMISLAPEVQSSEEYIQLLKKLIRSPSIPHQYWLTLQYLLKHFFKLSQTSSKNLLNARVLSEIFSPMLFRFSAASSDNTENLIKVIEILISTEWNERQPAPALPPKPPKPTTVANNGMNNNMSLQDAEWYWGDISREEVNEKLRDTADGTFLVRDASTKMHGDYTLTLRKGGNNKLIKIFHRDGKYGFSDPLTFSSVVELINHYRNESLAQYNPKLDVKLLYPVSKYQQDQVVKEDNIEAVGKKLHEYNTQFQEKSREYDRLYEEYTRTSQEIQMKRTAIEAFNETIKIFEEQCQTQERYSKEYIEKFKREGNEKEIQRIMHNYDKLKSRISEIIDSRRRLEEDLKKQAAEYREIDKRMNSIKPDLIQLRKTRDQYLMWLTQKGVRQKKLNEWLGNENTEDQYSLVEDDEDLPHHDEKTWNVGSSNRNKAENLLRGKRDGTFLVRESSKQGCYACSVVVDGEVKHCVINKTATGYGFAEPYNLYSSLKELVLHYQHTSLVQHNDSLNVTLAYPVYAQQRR
Outline: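 Recombinant human GST- or His-tagged kinases were assayed for 1 h with ALPHA bead detection read after overnight standing. For PI3Kalpha: 1 ng enzyme, 100 μM ATP, 20 μM PIP2 in Hepes pH 7.4, detected by GST:Grp1/biotin-PIP3 competition. The p38alpha and Jnk assays followed the MAPK format (10 μM ATP, biotin-MBP, anti-phospho-MBP); IC50 from %-inhibition.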

[4] = test system: Hct116; assay: XTT assay, anti-proliferative effect, Hct116; assay type: cell-based; conditions: 45 h incubation
Protocol: The principle of this test is based on the intracellular reduction of the tetrazolium dye XTT (sodium 3′-[1-(phenylaminocarbonyl)-3,4-tetrazolium]-bis(4-methoxy-6-nitro)benzene sulfonic acid, Sigma) to a formazan dye by mitochondrial dehydrogenases. The dye is only formed by metabolically active cells and its photometrically measurable intensity is a quantitative indicator for the presence of living cells. The reduction of dye formation by incubation of the cells with substances serves as a parameter for the anti-proliferative effect.
The tumour cell lines (ATCC) were injected into 96-well microtitre plates in a defined cell number (5000 cells/well for BxPC3 and Hct116; 10000 cells/well for MDA MB468) and then incubated overnight in an incubator at 37° C., 5% CO2 and 95% air humidity. The test substances were prepared as stock solutions (10 mM) in DMSO. […] The cell plates were then incubated for 45 h in an incubator at 37° C., 5% CO2 and 95% air humidity.
For the detection reaction the substrate XTT was mixed with PMS (N-Methyl dibenzopyrazine methylsulfate, Sigma) and added to the cells so that a final concentration of 325 μg XTT/ml and 2.5 μg PMS/ml was obtained. It was then incubated for 3 h at 37° C., 95% air humidity. The formazan salt formed by the cellular dehydrogenases could then be quantified by adsorption at 490 nm.
The % inhibition value was evaluated by means of the following formula from the values for the optical densities measured in each case at 490 nm:
Eight determinations were made for each control and two for the substance samples. The 0% control contains no cells, the 100% control (proliferation control) contains no test substance. The EC50 values were determined using GraphPadPrism.

Sequence of Erk2 (P28482 2-360 limits assumed): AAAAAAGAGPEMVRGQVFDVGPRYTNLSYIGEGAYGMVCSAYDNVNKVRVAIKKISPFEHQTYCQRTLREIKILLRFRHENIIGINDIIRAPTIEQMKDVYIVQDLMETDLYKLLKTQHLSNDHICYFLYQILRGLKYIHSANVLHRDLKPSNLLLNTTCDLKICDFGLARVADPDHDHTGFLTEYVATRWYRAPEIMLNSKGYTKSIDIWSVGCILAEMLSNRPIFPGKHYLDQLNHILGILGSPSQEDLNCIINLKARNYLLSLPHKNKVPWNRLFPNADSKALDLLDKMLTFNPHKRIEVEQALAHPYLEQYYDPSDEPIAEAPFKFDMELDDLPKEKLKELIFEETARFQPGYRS

SMILES | IC50 [1] [nM] | IC50 [2] [nM] | IC50 [3] [nM] | EC50 [4] [nM] | EC50 ([4]; Homo sapiens, HCT-116) [nM]
C=CCNC(=S)Nc1ccc2ncc(-c3ccc(O)cc3)nc2n1 [Compound 30, 1-allyl-3-[3-(4-hydroxy-phenyl)-pyrido[2,3-b]pyrazin-6-yl]-thiourea] | 392 | > 100000 | 370 | – | 6000
CCNC(=O)Nc1ccc2ncc(-c3cnn(C)c3)nc2n1 [Compound 173, 1-Ethyl-3-[3-(1-methyl-1H-pyrazol-4-yl)-pyrido[2,3-b]pyrazin-6-yl]-urea] | 107 | > 100000 | 2400 | – | 9000
CCNC(=O)Nc1ccc2ncc(Nc3ccc(C)cc3)nc2n1 [Compound 150, 1-Ethyl-3-(3-p-tolylamino-pyrido[2,3-b]pyrazin-6-yl)-urea] | 18700 | 18100 | 129 | – | 2300
O=C(NCCCCO)Nc1ccc2ncc(-c3ccccc3)nc2n1 [Compound 146, 1-(4-Hydroxy-butyl)-3-(3-phenyl-pyrido[2,3-b]pyrazin-6-yl)-urea] | 155 | > 100000 | 1100 | – | 9300

The remaining lines, values ahead:

IC50 [1] [nM] | IC50 [2] [nM] | IC50 [3] [nM] | EC50 [4] [nM] | EC50 ([4]; Homo sapiens, HCT-116) [nM] | SMILES
203 | > 100000 | 2800 | 2100 | – | CCNC(=O)Nc1ccc2ncc(-c3ccc(O)c(OC)c3)nc2n1.Cc1ccc(S(=O)(=O)O)cc1 [Compound 183, 1-Ethyl-3-[3-(4-hydroxy-3-methoxy-phenyl)-pyrido[2,3-b]pyrazin-6-yl]-urea p-Toluolsulfonate]
62 | > 100000 | 490 | – | 1500 | CCNC(=O)Nc1ccc2ncc(-c3ccc(O)c(OC)c3)nc2n1 [Compound 124, 1-Ethyl-3-[3-(4-hydroxy-3-methoxy-phenyl)-pyrido[2,3-b]pyrazin-6-yl]-urea]
